The nature of the data set: Waters Atlantis T3, 100 × 2.1 mm, 3 µm, 0.1 mL/min, estimated dead time 2.2 min; A: water + 0.01% formic acid; B: methanol; gradient (min/%B) 0/2 3/2 20/100 29/100. As to conditions: stereoisomer not certain.
In the case of `CNCC(c1ccc(OC)cc1)C1(O)CCCCC1` (stereo not given), the LC retention time was 14.8 min.

Take `CN(C)CCCN1c2ccccc2CCc2ccccc21`: the LC retention time was 18.6 min.

Regarding `CCC1(c2ccccc2)C(=O)NCNC1=O`, the LC retention time was 17 min.

Turning to `CCC(=O)C(CC(C)N(C)C)(c1ccccc1)c1ccccc1` (stereo not given), the LC retention time is 18.5 min.

Regarding `CNCCC(Oc1cccc2ccccc12)c1cccs1` (stereo not given), the LC retention time is 18.7 min.

In the case of `CNC(C)Cc1ccc2c(c1)OCO2` (stereo not given), the LC retention time is 17.4 min.

Turning to `CCC1OC(=O)C(C)C(OC2CC(C)(OC)C(O)C(C)O2)C(C)C(OC2OC(C)CC(N(C)C)C2O)C(C)(O)CC(C)CN(C)C(C)C(O)C1(C)O` (stereo not given), the LC retention time is 17.4 min.

Take `Cn1c(=O)c2[nH]cnc2n(C)c1=O`: the LC retention time was 14.3 min.

As to `CC(N)Cc1ccc2c(c1)OCO2` (stereo not given), the LC retention time is 13.6 min.

Take `Cc1noc(NS(=O)(=O)c2ccc(N)cc2)c1C`: the LC retention time was 14.5 min.

Take `CCCCC(=O)N(Cc1ccc(-c2ccccc2-c2nn[nH]n2)cc1)C(C(=O)O)C(C)C` (stereo not given): the LC retention time was 23.2 min.

As for `CN1CCN2c3ncccc3Cc3ccccc3C2C1` (stereo not given), the LC retention time is 15.5 min.

Regarding `Nc1ccc(S(=O)(=O)Nc2nccs2)cc1`, the LC retention time is 13.5 min.

As to `COc1ccc2c3c1OC1C(O)C=CC4C(C2)N(C)CCC341` (stereo not given), the LC retention time was 12.2 min.

Regarding `CCC1OC(=O)CC(O)C(C)C(OC2OC(C)C(OC3CC(C)(O)C(O)C(C)O3)C(N(C)C)C2O)C(CC=O)CC(C)C(=O)C=CC(C)=CC1COC1OC(C)C(O)C(OC)C1OC` (stereo not given), the LC retention time is 18.3 min.

With `CN=C(NC#N)NCCSCc1nc[nH]c1C`, the LC retention time is 11.9 min.

In the case of `CC1(C)SC2C(NC(=O)C(N)c3ccc(O)cc3)C(=O)N2C1C(=O)O` (stereo not given), the LC retention time was 28.1 min.

`CCN1CCCC1CNC(=O)c1cc(S(N)(=O)=O)ccc1OC` (stereo not given): the LC retention time is 11.6 min.

Consider `CNC(=C[N+](=O)[O-])NCCSCc1ccc(CN(C)C)o1`, for which the LC retention time was 11.8 min.

`CC=C1N(C)C(C)CC1(c1ccccc1)c1ccccc1` (stereo not given): the LC retention time was 16.9 min.

In the case of `Cc1ccsc1C(=CCCN1CCCC(C(=O)O)C1)c1sccc1C` (stereo not given), the LC retention time is 19.6 min.

As for `CC(=O)Nc1ccc(O)cc1`, the LC retention time is 13.1 min.

Turning to `Nc1nc(N)c2nc(-c3ccccc3)c(N)nc2n1`, the LC retention time was 14.7 min.

For the compound `COCC(NC(C)=O)C(=O)NCc1ccccc1` (stereo not given), the LC retention time is 16.8 min.

For the compound `NCC1(CC(=O)O)CCCCC1`, the LC retention time was 13.3 min.

Turning to `Cc1ccc(-c2nc3ccc(C)cn3c2CC(=O)N(C)C)cc1`, the LC retention time is 15.5 min.

Take `CCC(C)(C)C(=O)OC1CC(C)C=C2C=CC(C)C(CCC3CC(O)CC(=O)O3)C21` (stereo not given): the LC retention time is 27 min.

In the case of `NC(=O)N1c2ccccc2C=Cc2ccccc21`, the LC retention time is 20.1 min.

In the case of `CCC1OC(=O)C(C)C(OC2CC(C)(OC)C(O)C(C)O2)C(C)C(OC2OC(C)CC(N(C)C)C2O)C(C)(OC)CC(C)C(=O)C(C)C(O)C1(C)O` (stereo not given), the LC retention time is 19.6 min.

For `CC(=O)Oc1ccc2c3c1OC1C(OC(C)=O)C=CC4C(C2)N(C)CCC341` (stereo not given), the LC retention time was 14.7 min.

As for `Cn1c(=O)c2c(ncn2C)n(C)c1=O`, the LC retention time was 15.2 min.

As to `CC(=O)OC1C=CC2C3Cc4ccc(O)c5c4C2(CCN3C)C1O5` (stereo not given), the LC retention time is 13 min.

Take `COc1ccc(C(CN(C)C)C2(O)CCCCC2)cc1` (stereo not given): the LC retention time is 16.6 min.

As to `CN1CCN2c3ncc(O)cc3Cc3ccccc3C2C1` (stereo not given), the LC retention time is 14.4 min.

Take `COc1cc(NS(=O)(=O)c2ccc(N)cc2)ncn1`: the LC retention time was 15.2 min.

With `COCCc1ccc(OCC(O)CNC(C)C)cc1` (stereo not given), the LC retention time is 15 min.

Turning to `COc1ccc2c3c1OC1C(=O)CCC4(O)C(C2)N(C)CCC314` (stereo not given), the LC retention time is 12.6 min.

For the compound `CN(C)C1C(=O)C(C(N)=O)=C(O)C2(O)C(=O)C3=C(O)c4c(O)cccc4C(C)(O)C3CC12` (stereo not given), the LC retention time is 14.8 min.

For the compound `Cc1cc(C)nc(NS(=O)(=O)c2ccc(N)cc2)n1`, the LC retention time was 15 min.

Regarding `COc1cc(NS(=O)(=O)c2ccc(N)cc2)nc(OC)n1`, the LC retention time is 17.5 min.

Take `CCCC1CC(C(=O)NC(C(C)O)C2OC(SC)C(O)C(O)C2O)N(C)C1` (stereo not given): the LC retention time is 13.3 min.

As to `Cc1cc2c(s1)Nc1ccccc1N=C2N1CCN(C)CC1`, the LC retention time is 20.4 min.

On to `CC(C)CC(CN)CC(=O)O` (stereo not given), for which the LC retention time is 13.2 min.

Regarding `COc1ncnc(NS(=O)(=O)c2ccc(N)cc2)c1OC`, the LC retention time is 16 min.

`Nc1ccc(S(=O)(=O)Nc2ccccn2)cc1`: the LC retention time is 13.8 min.

On to `CCN1CCCC1CNC(=O)c1cc(S(=O)(=O)CC)c(N)cc1OC` (stereo not given), for which the LC retention time is 13.4 min.

Regarding `Cc1ccnc(NS(=O)(=O)c2ccc(N)cc2)n1`, the LC retention time is 14.2 min.

As to `COc1cccc(C2(O)CCCCC2CN(C)C)c1` (stereo not given), the LC retention time is 14.6 min.

For `CCC(C(N)=O)N1CCCC1=O` (stereo not given), the LC retention time is 13.6 min.

Regarding `CN1CCC23c4c5ccc(O)c4OC2C(O)C=CC3C1C5` (stereo not given), the LC retention time is 10.1 min.

In the case of `O=C1CN=C(c2ccccc2)c2cc([N+](=O)[O-])ccc2N1`, the LC retention time is 20.4 min.

On to `Cc1cc(NS(=O)(=O)c2ccc(N)cc2)no1`, for which the LC retention time is 15.7 min.

`CC1=C(C(=O)O)N2C(=O)C(NC(=O)C(N)c3ccccc3)C2SC1` (stereo not given): the LC retention time is 14.3 min.

With `NC(N)=NS(=O)(=O)c1ccc(N)cc1`, the LC retention time is 7.11 min.

On to `CN(C)CCC=C1c2ccccc2COc2ccccc21`, for which the LC retention time is 17.6 min.

As to `COc1cc(Cc2cnc(N)nc2N)cc(OC)c1OC`, the LC retention time is 13.5 min.

With `Nc1ccc(S(=O)(=O)Nc2ncccn2)cc1`, the LC retention time was 13.2 min.

On to `c1ccc2c(c1)Cc1cccnc1N1CCNCC21` (stereo not given), for which the LC retention time is 15.7 min.

For `CCN(CC)CC(=O)Nc1c(C)cccc1C`, the LC retention time was 14.2 min.

Turning to `CC(C)NCC(O)COc1ccc(CC(N)=O)cc1` (stereo not given), the LC retention time is 11.7 min.

As for `Cc1nnc(NS(=O)(=O)c2ccc(N)cc2)s1`, the LC retention time is 14.8 min.

On to `CN(C)C1C(=O)C(C(N)=O)=C(O)C2(O)C(=O)C3=C(O)c4c(O)cccc4C(C)(O)C3C(O)C12` (stereo not given), for which the LC retention time is 15.1 min.

With `CCN(C)C(=O)Oc1cccc(C(C)N(C)C)c1` (stereo not given), the LC retention time was 14.8 min.

For `COc1ccc(NS(=O)(=O)c2ccc(N)cc2)nn1`, the LC retention time is 16 min.

As for `C=CC1(C)CC(OC(=O)CSCCN(CC)CC)C2(C)C(C)CCC3(CCC(=O)C32)C(C)C1O` (stereo not given), the LC retention time is 18.1 min.

As for `CC1c2cccc(O)c2C(O)=C2C(=O)C3(O)C(O)=C(C(N)=O)C(=O)C(N(C)C)C3C(O)C21` (stereo not given), the LC retention time was 17.7 min.

Regarding `Cc1nc(NS(=O)(=O)c2ccc(N)cc2)oc1C`, the LC retention time was 16 min.

Take `CCN(CC)C(=O)C1C=C2c3cccc4[nH]cc(c34)CC2N(C)C1` (stereo not given): the LC retention time is 15.8 min.

Turning to `CN1C2CCC1C(C(=O)O)C(OC(=O)c1ccccc1)C2` (stereo not given), the LC retention time was 15.7 min.

Consider `CC(N)Cc1ccccc1` (stereo not given), for which the LC retention time is 13.3 min.

`CN(C)CCC=C1c2ccccc2CCc2ccccc21`: the LC retention time is 18.9 min.

As to `COC(=O)C1C(OC(=O)c2ccccc2)CC2CCC1N2C` (stereo not given), the LC retention time is 14.9 min.

For the compound `CC(C)NCC(O)COc1cccc2ccccc12` (stereo not given), the LC retention time was 17.1 min.

As for `CCC1OC(=O)C(C)C(OC2CC(C)(OC)C(O)C(C)O2)C(C)C(OC2OC(C)CC(N(C)C)C2O)C(C)(O)CC(C)C(=O)C(C)C(O)C1(C)O` (stereo not given), the LC retention time is 18.5 min.

Consider `CC(=O)C1CCC2C3CCC4=CC(=O)CCC4(C)C3CCC12C` (stereo not given), for which the LC retention time was 24.7 min.

Turning to `CNC(C)C(O)c1ccccc1` (stereo not given), the LC retention time is 12.4 min.

Regarding `Cn1c([N+](=O)[O-])cnc1COC(N)=O`, the LC retention time is 13.1 min.

On to `CCNC(C)Cc1ccc2c(c1)OCO2` (stereo not given), for which the LC retention time was 14.1 min.

With `CNC(C)Cc1ccccc1` (stereo not given), the LC retention time is 13.5 min.

`CCn1cc(C(=O)O)c(=O)c2cc3c(cc21)OCO3`: the LC retention time is 20.1 min.

In the case of `OCCOCCN1CCN(C2=Nc3ccccc3Sc3ccccc32)CC1`, the LC retention time was 17.6 min.

Take `Nc1ccc(S(=O)(=O)Nc2cnc3ccccc3n2)cc1`: the LC retention time was 17.8 min.

Take `CNCCC=C1c2ccccc2CCc2ccccc21`: the LC retention time was 19.1 min.

Turning to `Cc1ncc([N+](=O)[O-])n1CCO`, the LC retention time was 13.2 min.

As to `NC(=O)N1c2ccccc2CC(=O)c2ccccc21`, the LC retention time was 18.8 min.

(Values after the RepoRT retention time repository (doi:10.1016/j.scitotenv.2015.09.145).)
